In article PMC7136958, “Targeting the pregnane X receptor using microbial metabolite mimicry” (EMBO Molecular Medicine, 2020):
Where “and” joins values, the source holds several entries; their conditions need not be identical. Identical values can stand only once.

Legend:
CDK2 = CDK2 (Homo sapiens, UniProt P24941); assay: KINOMEscan select kinase screen; type: binding; conditions: two experiments
Experimental: (§1) Kinase Assays. The kinase inhibition assays were conducted by DiscoverX on a platform assay by Ambit BioSciences as described previously 16,17. FKK6 was screened at a single concentration of 10 μM in duplicate. The scanMAXSM assay panel measures 468 kinases
(§2) (https://www.discoverx.com/services/drug-discovery-development-services/kinase-profiling/kinomescan/scanmax). The assays measure a compound’s ability to inhibit binding of a canonical ligand substrate, with 0% activity of control corresponding to full inhibition and 100% activity of control to no inhibition. […]
(§3) quantitative measure of compound selectivity based on the number of kinase hits (enzymes inhibited) divided by the total number of distinct kinases tested. Three different activity cut-offs were analyzed – […]
(§4) ; and S(1) or % activity of control
(§5) < 1. To illustrate effect or lack of effect, an image of the entire family of kinases tested were grouped by families and S(35). The TREEspot Kinase dendrogram image was generated using TREEspot™ Software Tool and reprinted with permission from KINOME scan®, a division of DiscoveRx […]

CDK4 = CDK4 (Homo sapiens, UniProt P11802); assay: KINOMEscan select kinase screen; type: binding; conditions: two experiments
Experimental: as §1, §2, §3, §4, §5

CDK5 = CDK5 (Homo sapiens, UniProt Q00535); assay: KINOMEscan select kinase screen; type: binding; conditions: two experiments
Experimental: as §1, §2, §3, §4, §5

ERK1 = ERK1 (Homo sapiens, UniProt P27361); assay: KINOMEscan select kinase screen; type: binding; conditions: 10000 nM, two experiments
Experimental: as §1, §2, §3, §4, §5

ERK2 = ERK2 (Homo sapiens, UniProt P28482); assay: KINOMEscan select kinase screen; type: binding; conditions: two experiments
Experimental: as §1, §2, §3, §4, §5

ERK3 = ERK3 (Homo sapiens, UniProt Q16659); assay: KINOMEscan select kinase screen; type: binding; conditions: two experiments
Experimental: as §1, §2, §3, §4, §5

ERK4 = ERK4 (Homo sapiens, UniProt P31152); assay: KINOMEscan select kinase screen; type: binding; conditions: two experiments
Experimental: as §1, §2, §3, §4, §5

ERK5 = ERK5 (Homo sapiens, UniProt Q13164); assay: KINOMEscan select kinase screen; type: binding; conditions: two experiments
Experimental: as §1, §2, §3, §4, §5

ERK8 = biological target: T1, ERK8 (Homo sapiens, UniProt Q8TD08); assay: KINOMEscan select kinase screen; type: binding; conditions: two experiments
T1 sequence (Q8TD08 1-544): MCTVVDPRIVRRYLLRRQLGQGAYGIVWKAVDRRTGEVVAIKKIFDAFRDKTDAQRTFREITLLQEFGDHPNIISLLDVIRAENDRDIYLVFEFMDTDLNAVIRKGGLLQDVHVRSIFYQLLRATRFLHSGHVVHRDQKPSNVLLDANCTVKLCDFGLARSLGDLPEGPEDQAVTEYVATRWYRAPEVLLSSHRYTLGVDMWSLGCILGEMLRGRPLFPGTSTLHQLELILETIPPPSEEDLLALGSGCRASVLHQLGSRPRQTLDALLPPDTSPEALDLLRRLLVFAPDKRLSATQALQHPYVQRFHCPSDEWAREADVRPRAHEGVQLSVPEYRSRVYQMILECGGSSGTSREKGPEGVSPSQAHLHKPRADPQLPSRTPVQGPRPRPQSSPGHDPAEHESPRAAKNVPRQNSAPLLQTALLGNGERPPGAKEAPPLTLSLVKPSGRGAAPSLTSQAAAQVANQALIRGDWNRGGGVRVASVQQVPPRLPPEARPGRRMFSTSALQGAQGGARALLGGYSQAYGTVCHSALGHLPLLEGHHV
Experimental: as §1, §2, §3, §4, §5

GSK3A = GSK3A (Homo sapiens, UniProt P49840); assay: KINOMEscan select kinase screen; type: binding; conditions: two experiments
Experimental: as §1, §2, §3, §4, §5

GSK3B = GSK3B (Homo sapiens, UniProt P49841); assay: KINOMEscan select kinase screen; type: binding; conditions: two experiments
Experimental: as §1, §2, §3, §4, §5

IKK-alpha = biological target: T2, IKK-alpha (Homo sapiens, UniProt O15111); assay: KINOMEscan select kinase screen; type: binding; conditions: two experiments
T2 sequence (O15111 1-745): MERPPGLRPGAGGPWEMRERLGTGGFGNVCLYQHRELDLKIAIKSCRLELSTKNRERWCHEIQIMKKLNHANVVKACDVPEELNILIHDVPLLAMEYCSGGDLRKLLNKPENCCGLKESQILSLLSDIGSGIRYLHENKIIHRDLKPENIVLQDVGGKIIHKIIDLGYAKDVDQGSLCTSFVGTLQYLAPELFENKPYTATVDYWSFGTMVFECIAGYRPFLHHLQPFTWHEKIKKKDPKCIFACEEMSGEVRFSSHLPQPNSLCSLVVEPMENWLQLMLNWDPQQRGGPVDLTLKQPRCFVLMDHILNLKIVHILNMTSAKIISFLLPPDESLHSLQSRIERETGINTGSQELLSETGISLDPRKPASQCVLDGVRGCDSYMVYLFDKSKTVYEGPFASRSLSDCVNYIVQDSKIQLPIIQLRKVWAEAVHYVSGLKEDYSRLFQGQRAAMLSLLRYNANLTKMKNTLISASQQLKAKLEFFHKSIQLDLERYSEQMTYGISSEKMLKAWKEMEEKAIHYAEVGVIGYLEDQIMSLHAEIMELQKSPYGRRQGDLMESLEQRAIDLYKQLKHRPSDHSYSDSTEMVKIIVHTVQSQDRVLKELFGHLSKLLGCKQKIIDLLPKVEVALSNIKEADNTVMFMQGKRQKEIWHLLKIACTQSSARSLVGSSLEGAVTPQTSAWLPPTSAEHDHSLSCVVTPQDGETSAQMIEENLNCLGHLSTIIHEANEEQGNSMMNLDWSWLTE
Experimental: as §1, §2, §3, §4, §5

[1] = system: mutant PXR.1 (C285I/C301A); assay: PXR luciferase reporter assay in HEK293T cells, mutant PXR.1; type: cell-based, human; conditions: 10 μM, replicate wells
Experimental: After 24‐h transfection using Lipofectamine® LTX ([…] of plasmid), cells were exposed to FKK5 for 24 h. […] The data are expressed as mean ± SD RLU (relative light units from luciferase assay) normalized to β‐Gal activity in the same well. Differences were tested using 2‐way ANOVA with Tukey's multiple comparison test, and P < 0.05 was considered significant (*).

Chain of GSK3A (P49840 whole entry): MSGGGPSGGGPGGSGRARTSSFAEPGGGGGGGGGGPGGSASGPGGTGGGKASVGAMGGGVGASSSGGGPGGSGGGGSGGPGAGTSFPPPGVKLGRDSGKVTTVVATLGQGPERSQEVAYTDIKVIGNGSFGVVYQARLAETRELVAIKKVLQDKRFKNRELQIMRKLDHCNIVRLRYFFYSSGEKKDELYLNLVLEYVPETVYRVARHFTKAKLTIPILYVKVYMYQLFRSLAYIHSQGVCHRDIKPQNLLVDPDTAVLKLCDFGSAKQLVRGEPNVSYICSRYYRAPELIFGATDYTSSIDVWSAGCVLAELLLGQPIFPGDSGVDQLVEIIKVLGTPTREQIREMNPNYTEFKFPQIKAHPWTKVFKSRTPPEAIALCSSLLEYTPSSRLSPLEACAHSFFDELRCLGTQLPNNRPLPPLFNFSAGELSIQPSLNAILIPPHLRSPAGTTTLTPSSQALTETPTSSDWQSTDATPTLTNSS
Chain of ERK3 (Q16659 whole entry): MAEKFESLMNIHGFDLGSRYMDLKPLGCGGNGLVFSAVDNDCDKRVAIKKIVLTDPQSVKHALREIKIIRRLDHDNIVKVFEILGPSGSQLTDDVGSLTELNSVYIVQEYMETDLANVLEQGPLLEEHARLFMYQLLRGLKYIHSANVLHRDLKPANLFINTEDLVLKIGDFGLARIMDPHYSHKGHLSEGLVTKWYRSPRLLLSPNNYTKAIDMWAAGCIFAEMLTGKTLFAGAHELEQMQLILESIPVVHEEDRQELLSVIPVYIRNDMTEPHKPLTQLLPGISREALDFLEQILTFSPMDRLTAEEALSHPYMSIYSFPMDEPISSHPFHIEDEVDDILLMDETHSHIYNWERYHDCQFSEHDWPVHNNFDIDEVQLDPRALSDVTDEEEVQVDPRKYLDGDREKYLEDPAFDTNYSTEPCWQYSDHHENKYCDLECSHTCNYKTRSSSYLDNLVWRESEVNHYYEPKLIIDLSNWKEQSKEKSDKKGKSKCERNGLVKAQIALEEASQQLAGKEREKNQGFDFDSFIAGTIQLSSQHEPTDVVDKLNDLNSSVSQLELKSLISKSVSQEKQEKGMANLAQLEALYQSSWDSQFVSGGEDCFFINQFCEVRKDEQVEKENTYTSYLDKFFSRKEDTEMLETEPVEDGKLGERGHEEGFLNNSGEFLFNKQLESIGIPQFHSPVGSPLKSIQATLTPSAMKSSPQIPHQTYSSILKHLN
Chain of CDK4 (P11802 whole entry): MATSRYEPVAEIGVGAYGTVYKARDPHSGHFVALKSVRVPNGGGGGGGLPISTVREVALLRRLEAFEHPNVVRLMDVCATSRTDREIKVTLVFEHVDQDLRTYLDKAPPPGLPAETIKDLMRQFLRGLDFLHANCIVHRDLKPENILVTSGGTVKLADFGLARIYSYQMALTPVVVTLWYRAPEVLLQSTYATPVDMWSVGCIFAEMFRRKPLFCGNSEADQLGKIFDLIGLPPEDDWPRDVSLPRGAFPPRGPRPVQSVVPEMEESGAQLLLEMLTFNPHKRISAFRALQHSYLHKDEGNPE
Chain of ERK2 (P28482 whole entry): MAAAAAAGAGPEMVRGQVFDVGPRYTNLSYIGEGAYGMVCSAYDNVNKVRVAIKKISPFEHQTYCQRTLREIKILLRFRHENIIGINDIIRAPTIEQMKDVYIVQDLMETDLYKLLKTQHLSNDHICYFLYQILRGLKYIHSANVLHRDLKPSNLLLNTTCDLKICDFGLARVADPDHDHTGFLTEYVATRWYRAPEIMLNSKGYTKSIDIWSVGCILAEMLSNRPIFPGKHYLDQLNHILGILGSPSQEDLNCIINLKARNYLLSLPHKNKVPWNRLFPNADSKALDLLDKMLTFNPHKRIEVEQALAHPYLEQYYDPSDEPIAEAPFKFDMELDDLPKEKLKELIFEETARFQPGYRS
Chain of GSK3B (P49841 whole entry): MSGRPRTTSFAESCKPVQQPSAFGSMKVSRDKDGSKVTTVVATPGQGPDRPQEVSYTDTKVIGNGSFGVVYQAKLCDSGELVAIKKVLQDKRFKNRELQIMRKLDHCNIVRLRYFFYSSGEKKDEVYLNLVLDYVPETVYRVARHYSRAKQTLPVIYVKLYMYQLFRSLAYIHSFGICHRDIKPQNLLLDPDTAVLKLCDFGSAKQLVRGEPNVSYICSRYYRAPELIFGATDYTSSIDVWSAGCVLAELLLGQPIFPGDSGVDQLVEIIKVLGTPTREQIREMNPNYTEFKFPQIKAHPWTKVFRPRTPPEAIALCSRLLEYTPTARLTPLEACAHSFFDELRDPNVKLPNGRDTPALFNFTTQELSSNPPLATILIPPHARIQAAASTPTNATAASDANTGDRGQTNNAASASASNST
Chain of CDK5 (Q00535 whole entry): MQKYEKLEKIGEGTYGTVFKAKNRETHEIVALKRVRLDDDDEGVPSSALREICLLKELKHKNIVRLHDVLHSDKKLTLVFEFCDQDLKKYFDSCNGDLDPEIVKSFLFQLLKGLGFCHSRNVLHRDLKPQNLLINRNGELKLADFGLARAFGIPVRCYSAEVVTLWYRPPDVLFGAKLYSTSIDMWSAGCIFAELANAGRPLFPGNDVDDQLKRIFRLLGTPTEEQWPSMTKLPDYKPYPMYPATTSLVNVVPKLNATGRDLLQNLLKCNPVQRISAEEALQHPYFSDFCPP
Chain of ERK4 (P31152 whole entry): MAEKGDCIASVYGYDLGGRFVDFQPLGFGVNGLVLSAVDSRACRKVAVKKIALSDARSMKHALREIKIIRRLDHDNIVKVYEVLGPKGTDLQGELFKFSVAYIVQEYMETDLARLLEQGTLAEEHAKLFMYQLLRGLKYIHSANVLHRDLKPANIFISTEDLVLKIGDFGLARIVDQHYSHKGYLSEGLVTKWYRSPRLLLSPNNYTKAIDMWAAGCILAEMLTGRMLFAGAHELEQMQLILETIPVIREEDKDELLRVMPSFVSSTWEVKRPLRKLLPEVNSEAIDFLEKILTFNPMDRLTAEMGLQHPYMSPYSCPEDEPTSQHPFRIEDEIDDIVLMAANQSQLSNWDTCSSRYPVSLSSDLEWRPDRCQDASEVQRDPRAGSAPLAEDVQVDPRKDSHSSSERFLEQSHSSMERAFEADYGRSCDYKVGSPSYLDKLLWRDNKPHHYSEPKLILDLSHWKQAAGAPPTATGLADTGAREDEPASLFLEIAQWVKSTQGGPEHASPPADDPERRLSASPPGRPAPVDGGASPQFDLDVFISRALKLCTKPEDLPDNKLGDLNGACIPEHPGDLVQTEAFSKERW
Chain of ERK5 (Q13164 whole entry): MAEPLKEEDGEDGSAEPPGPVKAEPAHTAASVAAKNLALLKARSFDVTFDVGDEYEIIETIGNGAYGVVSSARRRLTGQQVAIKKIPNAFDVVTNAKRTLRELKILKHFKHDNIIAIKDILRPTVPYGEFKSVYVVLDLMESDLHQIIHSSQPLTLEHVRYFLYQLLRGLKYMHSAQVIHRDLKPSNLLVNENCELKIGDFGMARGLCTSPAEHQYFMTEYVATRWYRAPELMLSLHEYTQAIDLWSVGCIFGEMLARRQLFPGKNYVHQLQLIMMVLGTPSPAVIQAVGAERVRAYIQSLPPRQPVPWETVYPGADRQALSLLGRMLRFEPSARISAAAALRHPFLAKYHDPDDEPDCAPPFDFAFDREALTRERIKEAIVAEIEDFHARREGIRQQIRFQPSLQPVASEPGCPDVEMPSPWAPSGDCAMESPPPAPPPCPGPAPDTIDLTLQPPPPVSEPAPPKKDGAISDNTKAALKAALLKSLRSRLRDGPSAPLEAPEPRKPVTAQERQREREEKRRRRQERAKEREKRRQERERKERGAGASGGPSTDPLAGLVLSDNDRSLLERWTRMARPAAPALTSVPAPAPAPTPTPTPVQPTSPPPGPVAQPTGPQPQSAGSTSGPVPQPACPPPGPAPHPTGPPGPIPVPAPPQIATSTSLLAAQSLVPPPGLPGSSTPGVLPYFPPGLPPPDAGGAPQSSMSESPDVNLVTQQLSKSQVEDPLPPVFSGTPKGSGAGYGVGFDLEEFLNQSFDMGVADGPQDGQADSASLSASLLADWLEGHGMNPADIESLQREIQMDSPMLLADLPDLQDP
Chain of ERK1 (P27361 whole entry): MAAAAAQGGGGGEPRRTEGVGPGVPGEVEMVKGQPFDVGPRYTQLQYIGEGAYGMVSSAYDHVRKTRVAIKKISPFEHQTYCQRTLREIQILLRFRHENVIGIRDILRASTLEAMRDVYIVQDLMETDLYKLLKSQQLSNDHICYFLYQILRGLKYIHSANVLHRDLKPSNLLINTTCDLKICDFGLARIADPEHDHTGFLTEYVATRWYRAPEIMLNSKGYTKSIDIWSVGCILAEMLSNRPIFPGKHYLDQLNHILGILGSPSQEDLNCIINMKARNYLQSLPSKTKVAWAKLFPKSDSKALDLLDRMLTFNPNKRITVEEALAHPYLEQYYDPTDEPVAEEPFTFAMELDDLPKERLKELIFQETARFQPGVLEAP

**Q.** O=C(c1ccncc1)c1cc2ccccc2n1S(=O)(=O)c1ccccc1 [FKK5, (1-(phenylsulfonyl)-1H-indol-2-yl)(pyridin-4-yl)methanone] was tested. Which “%Ctrl” value (CDK2; 10000 nM, 10 µM) did it give?
**A.** Its value is 100 %Ctrl and 74 %Ctrl.

**Q.** What about the “%Ctrl” value (CDK2; 25000 nM, 25 µM) of the same compound?
**A.** The value was 89 %Ctrl and 63 %Ctrl.

**Q.** What about the “%Ctrl” value (CDK4; 10000 nM, 10 µM) of the same compound?
**A.** Its value is 98 %Ctrl.

**Q.** What about the remaining binding at 10 µM (CDK4; 10000 nM, read-out: %Ctrl) of the same compound?
**A.** The remaining binding at 10 µM was 100%.

**Q.** What about the “%Ctrl” value (CDK4; 25000 nM, 25 µM) of the same compound?
**A.** Its value is 90 %Ctrl.

**Q.** And the remaining binding at 25 µM (CDK4; 25000 nM, read-out: %Ctrl)?
**A.** Its remaining binding at 25 µM is 95%.

**Q.** And the “%Ctrl” value (CDK5; 10000 nM, 10 µM)?
**A.** The value was 77 %Ctrl and 100 %Ctrl.

**Q.** What about the “%Ctrl” value (CDK5; 25000 nM, 25 µM) of the same compound?
**A.** The value was 61 %Ctrl and 100 %Ctrl.

**Q.** And the “%Ctrl” value (ERK1; 10 µM)?
**A.** Its value is 100 %Ctrl.

**Q.** What about the remaining binding at 10 µM (ERK1; read-out: %Ctrl) of the same compound?
**A.** The remaining binding at 10 µM was 86%.

**Q.** And the “%Ctrl” value (ERK2; 10000 nM, 10 µM)?
**A.** Its value is 100 %Ctrl.

**Q.** And the remaining binding at 10 µM (ERK2; 10000 nM, read-out: %Ctrl)?
**A.** The remaining binding at 10 µM was 99%.

**Q.** And the “%Ctrl” value (ERK2; 25000 nM, 25 µM)?
**A.** The value was 85 %Ctrl.

**Q.** And the remaining binding at 25 µM (ERK2; 25000 nM, read-out: %Ctrl)?
**A.** The remaining binding at 25 µM was 94%.

**Q.** What about the “%Ctrl” value (ERK3; 10000 nM, 10 µM) of the same compound?
**A.** Its value is 88 %Ctrl.

**Q.** And the remaining binding at 10 µM (ERK3; 10000 nM, read-out: %Ctrl)?
**A.** The remaining binding at 10 µM was 100%.

**Q.** And the “%Ctrl” value (ERK3; 25000 nM, 25 µM)?
**A.** The value was 93 %Ctrl.

**Q.** And the remaining binding at 25 µM (ERK3; 25000 nM, read-out: %Ctrl)?
**A.** Its remaining binding at 25 µM is 80%.

**Q.** What about the “%Ctrl” value (ERK4; 10000 nM, 10 µM) of the same compound?
**A.** Its value is 82 %Ctrl.

**Q.** What about the remaining binding at 10 µM (ERK4; 10000 nM, read-out: %Ctrl) of the same compound?
**A.** The remaining binding at 10 µM was 97%.

**Q.** What about the “%Ctrl” value (ERK4; 25000 nM, 25 µM) of the same compound?
**A.** Its value is 91 %Ctrl.

**Q.** And the remaining binding at 25 µM (ERK4; 25000 nM, read-out: %Ctrl)?
**A.** Its remaining binding at 25 µM is 89%.

**Q.** What about the “%Ctrl” value (ERK5; 10000 nM, 10 µM) of the same compound?
**A.** Its value is 79 %Ctrl.

**Q.** And the remaining binding at 10 µM (ERK5; 10000 nM, read-out: %Ctrl)?
**A.** The remaining binding at 10 µM was 94%.

**Q.** And the “%Ctrl” value (ERK5; 25000 nM, 25 µM)?
**A.** The value was 92 %Ctrl.

**Q.** What about the remaining binding at 25 µM (ERK5; 25000 nM, read-out: %Ctrl) of the same compound?
**A.** The remaining binding at 25 µM was 100%.

**Q.** And the “%Ctrl” value (ERK8; 10000 nM, 10 µM)?
**A.** The value was 97 %Ctrl and 71 %Ctrl.

**Q.** And the “%Ctrl” value (ERK8; 25000 nM, 25 µM)?
**A.** Its value is 65 %Ctrl.

**Q.** And the remaining binding at 25 µM (ERK8; 25000 nM, read-out: %Ctrl)?
**A.** The remaining binding at 25 µM was 75%.

**Q.** And the “%Ctrl” value (GSK3A; 10000 nM, 10 µM)?
**A.** Its value is 92 %Ctrl.

**Q.** And the remaining binding at 10 µM (GSK3A; 10000 nM, read-out: %Ctrl)?
**A.** The remaining binding at 10 µM was 79%.

**Q.** What about the “%Ctrl” value (GSK3A; 25000 nM, 25 µM) of the same compound?
**A.** The value was 49 %Ctrl and 77 %Ctrl.

**Q.** And the “%Ctrl” value (GSK3B; 10000 nM, 10 µM)?
**A.** Its value is 92 %Ctrl.

**Q.** And the remaining binding at 10 µM (GSK3B; 10000 nM, read-out: %Ctrl)?
**A.** The remaining binding at 10 µM was 100%.

**Q.** And the “%Ctrl” value (GSK3B; 25000 nM, 25 µM)?
**A.** Its value is 90 %Ctrl.

**Q.** What about the remaining binding at 25 µM (GSK3B; 25000 nM, read-out: %Ctrl) of the same compound?
**A.** Its remaining binding at 25 µM is 98%.

**Q.** What about the “%Ctrl” value (IKK-alpha; 10000 nM, 10 µM) of the same compound?
**A.** The value was 86 %Ctrl.

**Q.** What about the remaining binding at 10 µM (IKK-alpha; 10000 nM, read-out: %Ctrl) of the same compound?
**A.** Its remaining binding at 10 µM is 96%.

**Q.** And the “%Ctrl” value (IKK-alpha; 25000 nM, 25 µM)?
**A.** The value was 100 %Ctrl.

**Q.** And the remaining binding at 25 µM (IKK-alpha; 25000 nM, read-out: %Ctrl)?
**A.** The remaining binding at 25 µM was 83%.

**Q.** How did the “PXR reporter activity, RLU/B-Gal” value [1] turn out when C#CCC(O)(c1ccncc1)c1cc2ccccc2n1S(=O)(=O)c1ccccc1 (centres unmarked) [FKK6] was run?
**A.** Its value is “unable to activate mutant PXR and 17076.9 RLU/B-Gal and 15814.1 RLU/B-Gal and 17887 RLU/B-Gal and 19102.1 RLU/B-Gal”.
